Measured values: patent US7504390B2, “Benzoxazepine derivatives and their use as AMPA receptor stimulators” (N.V. Organon, priority 2001, dated 2009)

tested on: AMPA receptor; assay: Patch clamp whole cell electrophysiology: glutamate-evoked steady state current in cultured hippocampal neurons; type: cell-based, Sprague-Dawley rats; conditions: 10 μM compound in extracellular solution; glutamate 0.5 mM; holding potential −60 mV; cultured rat hippocampal neurons
Description: The benzoxazepines of the invention are AMPA receptor stimulators, as can be determined by an increase in steady state current induced by application of glutamate in a conventional whole cell patch clamp method when a benzoxazepine of the invention is present (see Example 30 and Table I). The compounds may be used in the treatment of neurological and psychiatric diseases where an enhancement of synaptic responses mediated by AMPA receptors is required, such as neuro-degenerative disorders, cognitive or memory dysfunction, memory and learning disorders such as can result from ageing, attention disorder, trauma, stroke, epilepsy, Alzheimer's disease, depression, schizophrenia, psychotic disorders, anxiety, sexual dysfunctions, autism, or a disorder or disease resulting from neurotic agents or substance abuse, and alcohol intoxication.
Hippocampal neurons were prepared from embryonic or 1-3 day old Sprague-Dawley rats which were decapitated and the heads immediately placed in ice cold HBS (HEPES Buffered Solution: 130 mM NaCl, 5.4 mM KCl, 10 mM HEPES, 1.0 mM MgCl2, 1.8 CaCl2, 25 mM glucose, adjusted to pH 7.4). The whole brain was excised and placed on pre-sterilised filter paper, soaked in HBS and the cerebellum was removed. The brain was chopped and an enzyme solution (0.5 mg/ml protease X and 0.5 mg/ml protease in HBS) was added and subsequently left for 40 minutes at room temperature to digest before trituration. Cells were resuspended and then counted to give a final concentration of 1.5×10^8 per ml. Cells were aliquoted onto poly-D-lysine- and Matrigel®-treated coverslips and left to incubate at 37° C. for 1-2 hours. When incubation was complete, 1 ml of growth medium was added to each well containing a coverslip and the cells were returned to the incubator. After 3-5 days the mitotic inhibitor cytosine arabinoside (5 μM) was added and the cells returned to the incubator until required.
The whole cell configuration of the patch clamp technique (Hamill et al., Pflũgers Arch. 1981, 39, 85-100) was used to measure glutamate-evoked currents from postnatal hippocampal neurons maintained in culture for 4-7 days. A glass coverslip containing the culture was transferred to the recording chamber (Warner Instrument Corp., Hamden, Conn.) mounted on the stage of an inverted microscope (Nikon, Kingston, UK). The recording chamber contained 1-2 ml extracellular solution (145 mM NaCl, 5.4 mM KCl, 10 mM HEPES, 0.8 mM MgCl2, 1.8 CaCl2, 10 mM glucose and 30 mM sucrose, adjusted to pH 7.4 with 1M NaOH) and was constantly perfused at a rate of 1 ml/min. Recordings were performed at room temperature (20-22° C.) using an Axopatch 200B amplifier (Axon Instruments Ltd., Foster City, Calif.). Data acquisition and analysis was performed using Signal software (Cambridge electronic Design Ltd., Cambridge, UK). Pipettes were manufactured from GC120F-10 glass (Harvard Apparatus, Edenbridge UK) using a model P-87 electrode puller (Sutter Instruments Co., Novarto, Calif.). The patch electrodes had typical resistances of between 3-5 MΩ when filled with intracellular solution (140 mM potassium gluconate, 20 mM HEPES, 1.1 mM EGTA, 5 mM phosphocreatine, 3 mM ATP, 0.3 mM GTP, 0.1 mM CaCl2, 5 mM MgCl2, adjusted to pH 7.4 with 1M KOH).
Cells were voltage clamped at a holding potential of −60 mV and glutamate (0.5 mM) was applied using a 12 channel semi-rapid drug application device (DAD-12. Digitimer Ltd., Welwyn Garden City, UK). The agonist glutamate was applied for 1 s every 30 s. […] Between applications saline flowed to clear any dead volume in the system. For each application steady-state currents were plotted from the difference in baseline and steady state current and averaged over 300 ms.
Two solutions of the compound in extracellular solution were made up, one with glutamate and one without. The protocol was: 10 second application of compound, 1 second application of compound+glutamate and then 10 second wash with saline, then a 10 second delay. […]

| Compound | % Increase In steady state current at 10 μM [%] |
| --- | --- |
| O=C1c2ccccc2OC[C@H]2CCCN12 [(R)-2,3,11,11a-tetrahydro-1H,5H-pyrrolo[2,1-c][1,4]benzoxazepine-5-one, reference compound] | 24 |
| O=C1c2ccccc2OC[C@@H]2CCCN12 [(S)-2,3,11,11a-tetrahydro-1H,5H-pyrrolo[2,1-c][1,4]benzoxazepine-5-one, reference compound] | 53 |
| O=C1c2cc(F)ccc2OC[C@H]2CCCN12 [Example 1, (R)-7-Fluoro-2,3,11,11a-tetrahydro-1H,5H-pyrrolo[2,1-c][1,4]benzoxazepine-5-one] | 17 |
| O=C1c2cc(F)ccc2OC[C@@H]2CCCN12 [Example 2, (S)-7-Fluoro-2,3,11,11a-tetrahydro-1H,5H-pyrrolo[2,1-c][1,4]benzoxazepine-5-one] | 19 |
| O=C1c2cccc(F)c2OC[C@H]2CCCN12 [Example 3A, (R)-9-Fluoro-2,3,11,11a-tetrahydro-1H,5H-pyrrolo[2,1c][1,4]benzoxazepine-5-one] | 23 |
| O=C1c2cccc(F)c2OC[C@@H]2CCCN12 [Example 3B, (S)-9-Fluoro-2,3,11,11a-tetrahydro-1H,5H-pyrrolo[2,1-c][1,4]benzoxazepine-5-one] | 20 |
| O=S1(=O)c2ccccc2OC[C@@H]2CCCN21 [Example 10, (S)-2,3,11,11,a-tetrahydro-1H,5H-pyrrolo[2,1-c][5,1,4]benzthiaoxazepine-5-dioxide] | 7 |
| COc1ccc2c(c1)OC[C@@H]1CCCN1C2=O [Example 11, (S)-8-Methoxy-2,3,11,11a-tetrahydro-1H,5H-pyrrolo[2,1-c][1,4]benzoxazepine-5-one] | 21 |
| CC(=O)Nc1ccc2c(c1)C(=O)N1CCC[C@H]1CO2 [Example 14, (S)-N-(2,3,11,11a-tetrahydro-5-oxo-1H,5H-pyrrolo[2,1-a][1,4]benzoxazepin-7-yl)-acetamide] | 49 |
| O=C(c1ccc2c(c1)C(=O)N1CCC[C@H]1CO2)N1CCOCC1 [Example 16A, (S)-7-(morpholinocarbonyl)-2,3,11,11a-tetrahydro-1H,5H-pyrrolo[2,1-c][1,4]-benzoxazepine-5-one] | 24 |
| NC(=O)c1ccc2c(c1)C(=O)N1CCC[C@H]1CO2 [Example 17A, (S)-7-(aminocarbonyl)-2,3,11,11a-tetrahydro-1H,5H-pyrrolo[2,1-c][1,4]benzoxazeline-5-one] | 8 |
| CC[C@H]1Oc2ccccc2C(=O)N2CCC[C@@H]12 [Example 20A, (11R, 11aS)-11-Ethyl-2,3,11,11a-tetrahydro-1H,5H-pyrrolo[2,1-c][1,4]benzoxazepine-5-one] | 31 |
| CC[C@@H]1Oc2ccccc2C(=O)N2CCC[C@@H]12 [Example 20B, (11S. 11aS)-11-Ethyl-2,3,11,11a-tetrahydro-1H,5H-pyrrolo[2,1-c][1,4]benzoxazepine-5-one] | 28 |
| O=C1c2ccccc2OCC2COCCN12 (stereo not drawn) [Example 22, 6,6a-Dihydro-12H-Morpholino[3,4-c][1,4]benzoxazepin-12-one] | 31 |
| O=C1c2ccccc2OC[C@@H]2CCN12 [Example 23, (S)-1,2,10,10a-Tetrahydroazetidinyl[2,1-c][1,4]benzoxazepin-4-one] | 16 |
| CC1(C)COC2COc3ccccc3C(=O)N21 (stereo not drawn) [Example 24, 2,11,11a-Trihydro-3,3dimethyloxazolidinyl[2,1-c][1,4]-benzoxazepin-5-one] | 18 |
| O=C1c2ccccc2OC[C@@H]2C[C@@H](O)CN12 [Example 25, (2R,11aS)-2-Hydroxy-2,3,11,11a-tetrahydro-1H,5H-pyrrolo[2,1-c][1,4]benzoxazepine-5-one] | 31 |
| O=C1c2ccccc2OC[C@@H]2C[C@H](F)CN12 [Example 26, (2S,11aS)2-Fluoro-23,11,11a-tetrahydro-1H,5H-pyrrolo[2,1-c][1,4]benzoxazepine-5-one] | 24 |
| O=C1c2ccccc2OC[C@@H]2CC(F)(F)CN12 [Example 28, (2S)-2,2-Difluoro-2,3,11,11a-tetrahydro-1H,5H-pyrrolo[2,1-c][1,4]benzoxazepine-5-one] | 9 |

tested on: not listed separately; assay: Differential Reinforcement of Low Rates of Responding, 72 Seconds (DRL72); type: in vivo; conditions: rats; intraperitoneal route 30 minutes before the test session
Experimental: Rats are pretrained in a standard operant chamber to perform a DRL72 procedure according to Andrews et al (Andrews J S, Jansen J H M, Linders S, Princen A, Drinkenburg W H I M, Coenders C J H and Vossen J H M (1994). Effects of imipramine and mirtazapine on operant performance in rats. Drug Development Research, 32:58-66). The test session lasts for 60 minutes with no limit to the number of trials. Each trial begins with the stimulus light on above the active lever. A response on the lever only results in delivery of a pellet if 72 seconds has elapsed. A response on the lever before 72 seconds has elapsed resets the timer and is not rewarded. The number of pellets earned and the number of lever presses is recorded and used to calculate an efficiency score. Test compounds are administered via the intraperitoneal route 30 minutes before the start of the test session. Antidepressants increase the number of pellets earned and decrease the number of lever presses (Andrews et al, 1994).

| Compound | antidepressant like profile in DRL72 |
| --- | --- |
| O=C1c2cccc(F)c2OC[C@@H]2CCCN12 [Example 3B, (S)-9-Fluoro-2,3,11,11a-tetrahydro-1H,5H-pyrrolo[2,1-c][1,4]benzoxazepine-5-one] | antidepressant like profile |

tested on: not listed separately; assay: Inhibition of amphetamine-induced hyperlocomotion; type: in vivo; conditions: mice; sc, 30 minutes before 1.5 mg/kg d-amphetamine sulphate sc; measured for 60 minutes
Experimental: Mice were injected sc with drug or vehicle control. 30 Minutes later mice were injected sc with 1.5 mg/kg d-amphetamine sulphate or saline and immediately placed in infra red locomotor boxes where locomotor activity (long duration beam breaks of two adjacent beams) and stereotypic behaviour (repetitive short-duration beam breaks) were measured for a period of 60 minutes. The experiment was analysed using a 3-Way ANOVA with experimental session, infra red locomotor boxes and treatment as factors, and in the case of treatment, significant effects were followed up using a Tukey (HSD) test.

| Compound | antipsychotic like activity (inhibited amphetamine induced hyperlocomotion) |
| --- | --- |
| O=C1c2ccccc2OC[C@@H]2CCCN12 [(S)-2,3,11,11a-tetrahydro-1H,5H-pyrrolo[2,1-c][1,4]benzoxazepine-5-one, reference compound] | antipsychotic like activity |
| O=C1c2cccc(F)c2OC[C@H]2CCCN12 [Example 3A, (R)-9-Fluoro-2,3,11,11a-tetrahydro-1H,5H-pyrrolo[2,1c][1,4]benzoxazepine-5-one] | antipsychotic like activity |

tested on: not given; assay: not given; conditions: not given

| melting point [°C] | Compound |
| --- | --- |
| 92 to 94 | O=C1c2ccc(Cl)cc2OC[C@H]2CCCN12 [Example 4, (R)-8-chloro-2,3,11,11a-tetrahydro-1H,5H-pyrrolo[2,1-c][1,4]benzoxazepine-5-one] |
| 75 to 76 | O=C1c2ccc(F)cc2OC[C@@H]2CCCN12 [Example 5, (S)-8-fluoro-2,3,11,11a-tetrahydro-1H,5H-pyrrolo[2,1-c][1,4]benzoxazepine-5-one] |
| 89 to 90 | O=C1c2cccc(Cl)c2OC[C@@H]2CCCN12 [Example 8, (S)-9-Chloro-2,3,11,11a-tetrahydro-1H,5H-pyrrolo[2,1-c][1,4]benzoxazepine-5-one] |
| 140 to 140.5 | O=C(c1ccc2c(c1)C(=O)N1CCC[C@H]1CO2)N1CCCCC1 [Example 15, (S)-7-(Piperidinocarbonyl)-2,3,11,11a-tetrahydro-1H,5H-pyrrolo[2,1-c][1,4]benzoxazepine-5] |
| 164 to 165 | N#Cc1ccc2c(c1)C(=O)N1CCC[C@@H]1CO2 [Example 19, (R)-7-Cyano-2,3,11,11a-tetrahydro-1H5H-pyrrolo[2,1-c][1,4]benzoxazepine-5-one] |
